For one test, the system named is P. avidum ATCC 25577. Nature of the test: Disc diffusion assay (DDA). Type of test: cell-based. As to conditions: zone diameter, 200 μg per disc. Here is the method: (§1) The Propionibacterium spp organisms were cultured and maintained on Wilkins-Chalgren Anaerobe Medium (agar and broth) at pH 6.0; cultures were incubated anaerobically at 37° C. for 72 hours.
(§2) A sterile paper disc was impregnated with a sample of the test compound and a minimum of 30 minutes allowed for the solvents to evaporate as far as possible. The disc was then placed on an agar plate onto which the test micro-organism had been inoculated. The plate was then incubated under the conditions described above, following which it was examined visually for signs of bacterial growth. If the test compound had antimicrobial activity, a circular zone of no growth would be obtained around the disc. The diameter of this zone of “inhibition” was measured using a ProtoCOL™ automated zone sizer (Synbiosis, Cambridge, UK). In general, a greater diameter and/or area of the zone of inhibition indicates a greater antimicrobial activity in the relevant test compound, although other factors such as test compound mobility through the agar gel may also influence the result.
(§3) The area of the zone of inhibition was calculated from the measured zone diameter (D) using the formula π(D/2)^2.

The subject of a further test is P. granulosum PRP-005. Nature of the test: Disc diffusion assay (DDA). The class given is cell-based. As to conditions: zone diameter, 200 μg per disc. The procedure: as §1, §2, §3
Another test has as its system P. granulosum PRP-043. Briefly: Disc diffusion assay (DDA). Type of test: cell-based. As to conditions: zone diameter, 200 μg per disc. The procedure:
as §1, §2, §3

Another test has as its system P. granulosum PRP-055. Briefly: Disc diffusion assay (DDA). The class given is cell-based. As to conditions: zone diameter, 200 μg per disc. Here is the method:
as §1, §2, §3

A further test deals with P. granulosum NCTC 11865. Nature of the test: Disc diffusion assay (DDA). As to conditions: zone diameter, 200 μg per disc. The class given is cell-based. Here is the method: as §1, §2, §3
Another test concerns P. granulosum PRP-044. Briefly: Disc diffusion assay (DDA). As to conditions: zone diameter, 200 μg per disc. Type of test: cell-based. Here is the method:
as §1, §2, §3

For test [1], the system named is Staphylococcus xylosus ATCC 29971. Briefly: Disc diffusion assay (DDA). Type of test: cell-based. As to conditions: zone diameter, 200 μg per disc. Here is the method:
(§4) The staphylococci and enterococci were cultured and maintained on Mueller-Hinton Medium (agar and broth) at pH 7.2; they were incubated aerobically at 37° C. for 24 hours.
as §2, §3

For test [2], the system named is Staphylococcus simulans ATCC 27848. Briefly: Disc diffusion assay (DDA). The class given is cell-based. As to conditions: zone diameter, 200 μg per disc. The procedure:
as §4, §2, §3

The subject of test [3] is S. epidermidis (NCTC 11047). Briefly: Disc diffusion assay (DDA). The class given is cell-based. As to conditions: zone diameter, 200 μg per disc. Here is the method: as §4, §2, §3
Test [4] deals with Staphylococcus warneri ATCC 27836. Nature of the test: Disc diffusion assay (DDA). Type of test: cell-based. As to conditions: zone diameter, 200 μg per disc. Here is the method:
as §4, §2, §3

Test [5] deals with Staphylococcus cohnii ATCC 29974. Briefly: Disc diffusion assay (DDA). Type of test: cell-based. As to conditions: zone diameter, 200 μg per disc. Here is the method: as §4, §2, §3
Test [6] relates to Staphylococcus aureus ATCC 12600. Briefly: Disc diffusion assay (DDA). As to conditions: zone diameter, 200 μg per disc. Type of test: cell-based. Here is the method: as §4, §2, §3
Test [7] relates to Staphylococcus capitis ATCC 27840. Briefly: Disc diffusion assay (DDA). The class given is cell-based. As to conditions: zone diameter, 200 μg per disc. Here is the method: as §4, §2, §3
In test [8] the test system is Staphylococcus auricularis ATCC 33753. Briefly: Disc diffusion assay (DDA). As to conditions: zone diameter, 200 μg per disc. Type of test: cell-based. The procedure:
as §4, §2, §3

Test [9] has as its system S. saprophyticus NCTC 7292. Nature of the test: Disc diffusion assay (DDA). The class given is cell-based. As to conditions: zone diameter, 200 μg per disc. The procedure:
as §4, §2, §3

For another test, the system named is S. aureus ATCC 29213. Nature of the test: Time-to-kill (TTK) assay. The class given is cell-based, Staphylococcus aureus. As to conditions: BP 125 μg/ml and/or TBHQ […]; for CFU/ml 0.5: 0.5 hours; for CFU/ml 1.0: 1 hour. Here is the method:
This quantitative assay was designed to assess the time taken for a test compound to kill a test micro-organism.
Samples from an incubated liquid culture containing the relevant test compound and micro-organism were taken at timed intervals and inoculated onto agar plates. The plates were then incubated as described above and subsequently examined visually for growth. The numbers of viable microbial colonies on the plates were counted and converted to colony-forming units per ml (cfu/ml) using the appropriate dilution factor. By way of example, a colony count of 25 colonies from an agar plate carrying 100 μl of inoculum which had been serially diluted to 10^−6 would yield a viable cell count of 25×10 (to correct to 1 ml)×106 which would be equivalent to 2.5×10^8 cfu/ml. These cfu values were then converted into log10 values and plotted graphically against time of sample removal.
At each time point, samples were assessed in triplicate; the final cfu/ml value was an average (mean) of the three readings.
An appropriate concentration of test compound(s) for use in this assay was determined based on previously conducted MIC/FIC assays.
The TTK assay can provide another measure of synergy, as combinations of compounds may interact to kill test micro-organisms more quickly than the individual compounds alone. This would be indicated by a steeper decline in viable bacterial cell counts as compared to those observed for the individual compounds alone.
TTK assays were then conducted, as described above, on samples of BP, TBHQ and a BP/TBHQ mixture, using S. aureus ATCC 29213 as the test organism. The solvents used were DMSO for the BP and ethanol for the TBHQ. The results are shown in Table 3. cfu values were measured at time 0, 0.5 hours and 1 hour.

For a further test, the system named is P. acnes PRP-053. Briefly: MBC assay. The class given is cell-based, Propionibacterium acnes. As to conditions: Cutibacterium acnes, PRP053; P. acnes PRP-053 (resistance Tet/MLS). The procedure:
(§5) Other propionibacterial strains were also tested, as described in Example 8 below. These included certain antibiotic resistant propionibacteria, such as the two P. acnes strains PRP-010 and PRP-053 which are resistant respectively to macrolides-lincosamides-streptogramins-ketolides (MLSK) and to macrolides-lincosamides-streptogramins (MLS) and tetracycline—in other words, PRP-010 is resistant to erythromycin and clindamycin, and […] to erythromycin, clindamycin and tetracycline.
as §1
(§6) This assay, normally carried out after an MIC assay, determines the minimum concentration of a compound that is lethal to the micro-organism being tested.
(§7) These samples were then individually sub-cultured on non-selective agar medium, under the incubation conditions described above. Following incubation they were examined visually for bacterial growth.

For a further test, the system named is P. acnes PRP-010. Briefly: MBC assay. The class given is cell-based, Propionibacterium acnes. As to conditions: Cutibacterium acnes, PRP010; P. acnes PRP-010 (resistance MLSK). Here is the method:
as §5, §1, §6, §7

For another test, the system named is S. aureus CPHL EMRSA 16. Briefly: Disc diffusion assay (DDA). As to conditions: zone diameter, 200 μg per disc. Type of test: cell-based, Staphylococcus aureus. The procedure:
(§8) Other staphylococcal strains were also tested, as described in Example 5 below. These included certain antibiotic resistant staphylococci, such as the methicillin resistant S. aureus (MRSA) strains EMRSA-15 and EMRSA-16, both available from the Central Public Health Laboratory (CPHL), Colindale, UK. These strains are resistant not only to all beta-lactams but also to a number of other antibiotics in clinical use, making them a serious threat to human health. They are also responsible for the majority (>95%) of hospital-acquired MRSA infections in the UK.
as §4, §2, §3

In another test the test system is S. aureus CPHL EMRSA 15. Nature of the test: Disc diffusion assay (DDA). As to conditions: zone diameter, 200 μg per disc. The class given is cell-based, Staphylococcus aureus. The procedure: as §8, §4, §2, §3

In brackets after ≈: the same amount, converted by molar mass.

For the compound `CC(C)(C)c1cc(O)ccc1O` [TBHQ, t-butyl hydroquinone], the DDA is on record as 9.16 (±0.48) mm in the test on P. avidum ATCC 25577; 0.00 (±0.00) mm in the test on P. granulosum PRP-005; 10.56 (±0.48) mm in the test with P. granulosum PRP-043; 13.07 (±0.78) mm in the test with P. granulosum PRP-055; 11.00 (±0.00) mm in the test with P. granulosum NCTC 11865; 10.70 (±0.65) mm in the test on P. granulosum PRP-044. Further, the DDA was found to be 49.72 mm in [1]; 53.07 mm in [2]; 57.34 mm in [3]; 54.43 mm in [4]; 60.40 mm in test [5]; 49.24 mm in [6]. The DDA came out at 73.90 mm in test [7]; 80.18 mm in test [8]; 41.67 mm in test [9]; 67.72 mm with S. aureus CPHL EMRSA 16; 55.14 mm with S. aureus CPHL EMRSA 15. For the same compound, the Time to kill in the test on S. aureus ATCC 29213 is listed as more than 1 h. For the same compound, the “CFU/ml 0.5” value with S. aureus ATCC 29213 is on record as 7.40 × 10^5 CFU/ml. The “CFU/ml 1.0” value in the test on S. aureus ATCC 29213 is 8.47 × 10^5 CFU/ml. Also, in the test with S. aureus ATCC 29213, the “CFU/ml t = 0” value is 7.63 × 10^5 CFU/ml. In addition, the MBC is 7.8 mg/L (≈ 46.9 µM) with P. acnes PRP-053 and 15.6 mg/L (≈ 93.9 µM) with P. acnes PRP-010.
Consider `O=C(OOC(=O)c1ccccc1)c1ccccc1` [benzoyl peroxide], for which the DDA is given as 25.83 (±0.95) mm with P. avidum ATCC 25577; 22.95 (±0.64) mm in the test on P. granulosum PRP-005; 22.48 (±1.19) mm in the test with P. granulosum PRP-043; 21.51 (±0.47) mm in the test with P. granulosum PRP-055; 24.19 (±0.94) mm in the test on P. granulosum NCTC 11865; 29.31 (±0.54) mm in the test with P. granulosum PRP-044. For the same compound, the DDA in test [1] turned out to be 10.99 mm; in [2], 9.94 mm; in test [3], 10.65 mm; in test [4], 12.04 mm; in [5] it was 11.51 mm; in test [6], 11.99 mm. Besides, the DDA in test [7] is recorded as 12.46 mm; in test [8] it was 21.56 mm; in [9], 11.38 mm; in the test with S. aureus CPHL EMRSA 16, 10.80 mm; in the test with S. aureus CPHL EMRSA 15 it was 10.17 mm. Besides, the Time to kill in the test with S. aureus ATCC 29213 is more than 1 h. In the test on S. aureus ATCC 29213, the “CFU/ml 0.5” value is recorded as 6.20 × 10^5 CFU/ml. Also, in the test with S. aureus ATCC 29213, the “CFU/ml 1.0” value is 3.67 × 10^4 CFU/ml. For the same compound, the “CFU/ml t = 0” value in the test with S. aureus ATCC 29213 is recorded as 7.63 × 10^5 CFU/ml. Moreover, the MBC against P. acnes PRP-053 turned out to be 62.5 mg/L (≈ 258 µM); in the test with P. acnes PRP-010, 31.2 mg/L (≈ 129 µM).

Source of the values: patent publication US20080262097A1, “Formulations” (priority 2005, published 2008).
